Data on five compounds can be found in patent EP2604596A1, “Polymorphs of imatinib” (priority 2011, dated 2013).

A short description of this data set: Non-hygroscopicity test (storage in stability chambers, water content). It counts as physicochemical. The note with it: mesylate; for Water Content after 3 months (%): 40°C at humidity of 75%, for 3 months; for Initial Water Content (%): before storage. The method, then:
In the present invention, samples of obtained crystalline forms are stored […] in stability chambers under following conditions of 40°C and humidity of 75%, for 3 months to support non-hygroscopic nature of novel forms of imatinib mesylate.
Non-hygroscopicity test results are listed below in table 1.

Consider `CS(=O)(=O)O.Cc1ccc(NC(=O)c2ccc(CN3CCN(C)CC3)cc2)cc1Nc1nccc(-c2cccnc2)n1` [Polymorph B sample, 4-[(4-Methyl-1-piperazinyl)methyl]-N-[4-methyl-3-[[4-(3-pyridinyl)-2-pyrimidinyl]amino]phenyl]-benzamide mesylate], for which the “Water Content after 3 months (%)” value came out at 0.48% and the “Initial Water Content (%)” value was found to be 0.37%.

As for `CS(=O)(=O)O.Cc1ccc(NC(=O)c2ccc(CN3CCN(C)CC3)cc2)cc1Nc1nccc(-c2cccnc2)n1` [Polymorph M sample, 4-[(4-Methyl-1-piperazinyl)methyl]-N-[4-methyl-3-[[4-(3-pyridinyl)-2-pyrimidinyl]amino]phenyl]-benzamide mesylate], the “Water Content after 3 months (%)” value was 0.48% and the “Initial Water Content (%)” value is 0.38%.

For the compound `CS(=O)(=O)O.Cc1ccc(NC(=O)c2ccc(CN3CCN(C)CC3)cc2)cc1Nc1nccc(-c2cccnc2)n1` [Polymorph P sample, 4-[(4-Methyl-1-piperazinyl)methyl]-N-[4-methyl-3-[[4-(3-pyridinyl)-2-pyrimidinyl]amino]phenyl]-benzamide mesylate], the “Water Content after 3 months (%)” value was 0.50% and the “Initial Water Content (%)” value stood at 0.42%.

`CS(=O)(=O)O.Cc1ccc(NC(=O)c2ccc(CN3CCN(C)CC3)cc2)cc1Nc1nccc(-c2cccnc2)n1` [Polymorph Y sample, 4-[(4-Methyl-1-piperazinyl)methyl]-N-[4-methyl-3-[[4-(3-pyridinyl)-2-pyrimidinyl]amino]phenyl]-benzamide mesylate]: the “Water Content after 3 months (%)” value came to 0.50% and the “Initial Water Content (%)” value amounted to 0.40%.

Consider `CS(=O)(=O)O.Cc1ccc(NC(=O)c2ccc(CN3CCN(C)CC3)cc2)cc1Nc1nccc(-c2cccnc2)n1` [Polymorph β reference sample, 4-[(4-Methyl-1-piperazinyl)methyl]-N-[4-methyl-3-[[4-(3-pyridinyl)-2-pyrimidinyl]amino]phenyl]-benzamide mesylate, reference compound], for which the “Water Content after 3 months (%)” value was 0.60% and the “Initial Water Content (%)” value stood at 0.34%.
